Test results from the CombiSolv-Exp solvation set (Vermeire and Green 2021).

Assay: solvent given as SMILES

CCCS
Settings	solvation free energy, 298 K [kcal/mol]
in CC(C)CC(C)(C)C	-3.78
in O	-0.99

COc1cc(Cc2cnc(N)nc2N)cc(OC)c1OC
Settings	solvation free energy, 298 K [kcal/mol]
in C1CCOC1	-19.9
in CC(C)O	-19.2
in CCC(C)O	-19.4
in CCCCO	-19.5
in CCCO	-19.8
in CCO	-19.8
in CO	-20.6

CCCOC(=O)CCC
Settings	solvation free energy, 298 K [kcal/mol]
in O	-2.28

COC(C)=O
Settings	solvation free energy, 298 K [kcal/mol]
in C=CCCCCCCC=C	-3.23
in CC(=O)N(C)C	-3.82
in CC(C)=O	-4.12
in CC(C)CCCC(C)CCCC(C)CCCCC(C)CCCC(C)CCCC(C)C	-2.53
in CC(C)O	-3.36
in CCC1CO1	-4.01
in CCCCC(CC)COC(=O)CCCCC(=O)OCC(CC)CCCC	-3.19
in CCCCCC	-2.93
in CCCCCCC	-2.78
in CCCCCCCC	-2.88
in CCCCCCCCC=CCCCCCCCC(=O)OCC(COC(=O)CCCCCCCC=CCCCCCCCC)OC(=O)CCCCCCCC=CCCCCCCCC	-3.22
in CCCCCCCCCC	-2.8
in CCCCCCCCCCCCCCCC	-2.63
in CCCCCCCCO	-3.15
in CCCCN(C=O)CCCC	-3.48
in CCOC(=O)c1ccccc1C(=O)OCC	-3.48
in CCOCCO	-3.69
in CCOP(=O)(OCC)OCC	-3.75
in CN1CCCC1=O	-3.72
in CN1CCCCC1=O	-3.72
in CN1CCN(C)C1=O	-3.55
in CN(C)C=O	-3.9
in CNC(C)=O	-3.62
in CO	-3.96
in COP(=O)(OC)OC	-3.94
in CS(C)=O	-3.53
in NC=O	-3.27
in O	-3.14
in O=CN1CCOCC1	-3.58
in OCCOCCO	-3.32
in [2H]O[2H]	-3.17
in c1ccc2ncccc2c1	-3.51

Clc1cc(Cl)c(-c2cc(Cl)c(Cl)cc2Cl)cc1Cl
Settings	solvation free energy, 298 K [kcal/mol]
in CCCCCCCCO	-12.9
in O	-3.1

C=C1CCC23C(C)CCC(C(C)C)C2C13 (stereo not drawn)
Settings	solvation free energy, 298 K [kcal/mol]
in O	0.63

CCc1cccs1
Settings	solvation free energy, 298 K [kcal/mol]
in O	-0.93

N#Cc1ccc(O)cc1
Settings	solvation free energy, 298 K [kcal/mol]
in O	-10.2

Cc1cccc(Nc2ccccc2C(=O)O)c1C
Settings	solvation free energy, 298 K [kcal/mol]
in O	-6.78

Oc1ccc(I)cc1
Settings	solvation free energy, 298 K [kcal/mol]
in O	-7.61

OC(CCl)CCl
Settings	solvation free energy, 298 K [kcal/mol]
in CCCCOC(C)=O	-7.58
in Clc1ccccc1	-6.02

CC(=O)C(C)C(C)=O
Settings	solvation free energy, 298 K [kcal/mol]
in O	-4.75

CCCC(=O)O
Settings	solvation free energy, 298 K [kcal/mol]
in C=CCCCCCCC=C	-4.39
in C=CCCCCCCCCCCCCCC	-3.94
in O	-6.34

O=C(O)c1ccc(CCl)cc1
Settings	solvation free energy, 298 K [kcal/mol]
in C=CCCCCCCCCCCCCCC	-8.7
in O	-9.22

O=[N+]([O-])c1ccc(CCl)cc1
Settings	solvation free energy, 298 K [kcal/mol]
in Brc1ccccc1	-5.65
in CC(C)=O	-10
in CC(C)CCO	-8.34
in CC(C)CO	-8.25
in CCC(C)O	-8.28
in CCCC(C)O	-8.24
in CCCCCO	-8.4
in CCCCO	-8.49
in CCCCOC(C)=O	-9.67
in CCCO	-8.54
in CCOCC	-9.26
in O	-5.14

CCCOCCC
Settings	solvation free energy, 298 K [kcal/mol]
in C=CCCCCCCCCCCCCCC	-4
in CC(C)(C)O	-4.13
in CC(C)CO	-4.17
in CC(C)O	-4.02
in CCC(C)=O	-4.37
in CCC(C)O	-4.15
in CCCCCCCCCCCCCCCC	-4.02
in CCCCCCCCO	-4.05
in CCCCCCO	-4.12
in CCCCCl	-4.68
in CCCCO	-4.13
in CN(C)C=O	-3.62
in CO	-3.94
in ClC(Cl)(Cl)Cl	-4.83
in ClCCl	-5.02
in O	-1.23
in [2H]O[2H]	-1.37

OCCO
Settings	solvation free energy, 298 K [kcal/mol]
in O	-9.3

CN(C)C(=O)Nc1ccc(Cl)c(Cl)c1
Settings	solvation free energy, 298 K [kcal/mol]
in CC(C)CCO	-14.6
in CCCC(C)O	-14.5
in CCCCCl	-13.3
in CCCCOC(C)=O	-14.5
in CCCCOCCCC	-12.6
in CCOC(C)=O	-14.6
in COC(C)=O	-14.6
in ClC(Cl)(Cl)Cl	-12.4
in ClC(Cl)Cl	-14.5
in ClCCCl	-14.3
in ClCCl	-14.2
in Clc1ccccc1	-13.6
in O	-10.9

C=C(C)C1CC=C(C)C(O)C1 (stereo not drawn)
Settings	solvation free energy, 298 K [kcal/mol]
in O	-4.44

O=S1(=O)CCCC1
Settings	solvation free energy, 298 K [kcal/mol]
in O	-8.61

C=CCC
Settings	solvation free energy, 298 K [kcal/mol]
in C1CCCCC1	-2.47
in CC#N	-1.86
in CC(C)(C)O	-2.03
in CC(C)CC(C)(C)C	-2.26
in CC(C)CCO	-1.99
in CC(C)CO	-1.98
in CC(C)O	-1.98
in CCC(C)(C)O	-2.1
in CCC(C)CO	-1.98
in CCC(C)O	-1.99
in CCC(O)CC	-2.01
in CCCC(C)O	-2.01
in CCCCC	-2.53
in CCCCCC	-2.49
in CCCCCCC	-2.48
in CCCCCCCC	-2.45
in CCCCCCCCC	-2.43
in CCCCCCCCCC	-2.42
in CCCCCO	-2.01
in CCCCO	-2.01
in CCCO	-2.01
in CN(C)C=O	-1.78
in CO	-1.83
in COC(C)=O	-2.21
in Cc1ccc(C)cc1	-2.33
in Cc1cccc(C)c1	-2.3
in Cc1ccccc1C	-2.31
in ClC(Cl)(Cl)Cl	-2.5
in O	1.36
in O=CN1CCOCC1	-1.28

Clc1cc(Cl)c(-c2cc(Cl)ccc2Cl)c(Cl)c1
Settings	solvation free energy, 298 K [kcal/mol]
in O	-2.25

CC(C)CC(=O)CC(C)C
Settings	solvation free energy, 298 K [kcal/mol]
in CCCCCCC	-6.13

CCC(C)Br (stereo not drawn)
Settings	solvation free energy, 298 K [kcal/mol]
in C=CCCCCCCCCCCCCCC	-3.96
in O	-0.27

C=C(C)C1CCC(C)C(=O)C1 (stereo not drawn)
Settings	solvation free energy, 298 K [kcal/mol]
in O	-3.75

CC=O
Settings	solvation free energy, 298 K [kcal/mol]
in CC(=O)N(C)C	-3.22
in CC(C)CCCC(C)CCCC(C)CCCCC(C)CCCC(C)CCCC(C)C	-2.26
in CCCCCCCCCCCCCCCC	-1.51
in CCCCCCCCO	-3.65
in CCCCN(C=O)CCCC	-2.78
in CCN1CCCC1=O	-3.05
in CCN(CC)C(C)=O	-3.06
in CCNC(C)=O	-2.73
in CN1CCCCC1=O	-3.04
in CNC(C)=O	-2.85
in CO	-4.83
in O	-3.44

O=C1NC(=O)C(c2ccccc2)(c2ccccc2)N1
Settings	solvation free energy, 298 K [kcal/mol]
in O	-16.7

COC
Settings	solvation free energy, 298 K [kcal/mol]
in Brc1ccccc1	-2.1
in CC(C)(C)O	-2.25
in CC(C)CCO	-1.99
in CC(C)CO	-2.1
in CC(C)O	-2.13
in CCC(C)(C)O	-2.22
in CCC(C)CO	-2.05
in CCC(C)O	-2.1
in CCC(O)CC	-2.18
in CCCC(C)O	-2.05
in CCCCCC	-1.79
in CCCCCCCCO	-1.87
in CCCCCO	-1.98
in CCCCO	-2.05
in CCCO	-2.1
in CN(C)C=O	-2.13
in CO	-2.31
in COC(C)=O	-2.33
in Cc1ccc(C)cc1	-2.03
in Cc1cccc(C)c1	-2.05
in Cc1ccccc1C	-2.04
in Clc1ccccc1	-2.18
in Ic1ccccc1	-2.03
in O	-1.91

CC(=O)CCCC(C)C
Settings	solvation free energy, 298 K [kcal/mol]
in NC=O	-4.76
in O	-3

C1=CCCCCC1
Settings	solvation free energy, 298 K [kcal/mol]
in CN1CCCC1=O	-4.22
in CN(C)C=O	-4.23
in O	0.7

Cc1ccccc1C
Settings	solvation free energy, 298 K [kcal/mol]
in CC#N	-5.37
in CC(C)CC(C)(C)C	-5.5
in CC(O)CO	-4.31
in CCCCCCC	-5.51
in CCCCCCCCCCCCCCCC	-5.38
in CCCCCCCCO	-5.3
in CCCCCO	-5.18
in CCCCOC(C)=O	-6.22
in CNC=O	-5.02
in COCCO	-5.25
in ClCCCl	-6.13
in NC=O	-3.55
in NCCO	-4.08
in O	-0.89
in O=CN1CCOCC1	-5.27
in O=Cc1ccco1	-5.37
in OCCO	-3.65
in OCCOCCO	-4.48
in OCCOCCOCCO	-4.61
